Tests used:
Format in all cases: cell-based
[1] = molecular target: proteins of HEK293T cells transiently overexpressing caspase-6 (Homo sapiens, UniProt P14866); conditions: exp_ref Probe; protein HNRNPL (P14866); analysis C6
[2] = molecular target: T1, proteins of HEK293T cells transiently overexpressing caspase-6 (Homo sapiens, UniProt P30084); conditions: exp_ref Probe; protein ECHS1 (P30084); analysis C6
T1 sequence (P30084 28-290): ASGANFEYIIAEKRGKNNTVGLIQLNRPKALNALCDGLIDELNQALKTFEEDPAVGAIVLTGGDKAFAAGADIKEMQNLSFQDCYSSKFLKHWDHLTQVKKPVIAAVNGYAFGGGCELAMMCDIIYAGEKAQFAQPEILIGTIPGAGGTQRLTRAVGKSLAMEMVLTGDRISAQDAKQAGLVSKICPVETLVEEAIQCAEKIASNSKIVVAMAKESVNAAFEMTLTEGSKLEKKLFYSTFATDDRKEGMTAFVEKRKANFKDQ

[3] = molecular target: proteins of HEK293T cells transiently overexpressing caspase-6 (Homo sapiens, UniProt Q07812); conditions: Probe; protein BAX Q07812
Chain of proteins of HEK293T cells transiently overexpressing caspase-6 (Homo sapiens, UniProt Q07812) (Q07812 whole entry): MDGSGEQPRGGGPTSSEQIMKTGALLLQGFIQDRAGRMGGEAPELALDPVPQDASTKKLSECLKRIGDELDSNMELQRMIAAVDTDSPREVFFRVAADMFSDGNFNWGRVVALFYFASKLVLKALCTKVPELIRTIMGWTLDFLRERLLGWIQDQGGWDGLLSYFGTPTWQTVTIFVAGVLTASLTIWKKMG

[4] = molecular target: T2, proteins of HEK293T cells transiently overexpressing caspase-6 (Homo sapiens, UniProt Q8WUM4); conditions: protein PDCD6IP (Q8WUM4); exp_ref Probe; analysis C6
T2 sequence (Q8WUM4 1-868): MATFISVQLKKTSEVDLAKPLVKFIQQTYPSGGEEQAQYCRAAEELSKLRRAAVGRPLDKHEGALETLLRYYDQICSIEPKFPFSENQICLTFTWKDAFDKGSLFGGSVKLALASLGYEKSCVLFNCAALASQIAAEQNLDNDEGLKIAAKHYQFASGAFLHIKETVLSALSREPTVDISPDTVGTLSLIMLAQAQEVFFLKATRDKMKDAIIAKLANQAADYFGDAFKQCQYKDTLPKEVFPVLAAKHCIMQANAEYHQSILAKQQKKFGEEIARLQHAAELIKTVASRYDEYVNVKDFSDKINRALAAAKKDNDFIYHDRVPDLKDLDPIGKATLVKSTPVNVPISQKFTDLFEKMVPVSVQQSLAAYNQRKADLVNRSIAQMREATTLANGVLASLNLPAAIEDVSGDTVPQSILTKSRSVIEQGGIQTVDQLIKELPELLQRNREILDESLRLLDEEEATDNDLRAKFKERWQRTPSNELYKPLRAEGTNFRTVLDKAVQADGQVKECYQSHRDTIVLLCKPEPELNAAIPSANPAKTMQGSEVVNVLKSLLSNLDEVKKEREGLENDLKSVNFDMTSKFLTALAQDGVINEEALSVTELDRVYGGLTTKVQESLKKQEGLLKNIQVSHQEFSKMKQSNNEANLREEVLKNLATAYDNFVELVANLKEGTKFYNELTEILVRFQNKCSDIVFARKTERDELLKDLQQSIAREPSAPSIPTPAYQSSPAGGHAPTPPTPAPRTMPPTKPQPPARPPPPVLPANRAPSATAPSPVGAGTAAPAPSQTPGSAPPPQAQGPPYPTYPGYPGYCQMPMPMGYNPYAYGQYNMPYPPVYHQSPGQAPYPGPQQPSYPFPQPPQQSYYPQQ

[5] = molecular target: proteins of HEK293T cells transiently overexpressing caspase-6 (Homo sapiens, UniProt Q15185); conditions: exp_ref Probe; protein PTGES3 (Q15185); analysis C6
Chain of proteins of HEK293T cells transiently overexpressing caspase-6 (Homo sapiens, UniProt Q15185) (Q15185 whole entry): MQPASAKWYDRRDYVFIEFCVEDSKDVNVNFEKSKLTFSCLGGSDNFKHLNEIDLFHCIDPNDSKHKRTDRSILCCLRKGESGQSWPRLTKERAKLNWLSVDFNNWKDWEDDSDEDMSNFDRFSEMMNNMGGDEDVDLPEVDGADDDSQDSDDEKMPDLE

[6] = molecular target: proteins of HEK293T cells transiently overexpressing caspase-6 (Homo sapiens, UniProt P61313)
[7] = molecular target: proteins of HEK293T cells transiently overexpressing caspase-6 (Homo sapiens, UniProt P84103); conditions: Probe; protein SRSF3 P84103
Chain of proteins of HEK293T cells transiently overexpressing caspase-6 (Homo sapiens, UniProt P84103) (P84103 whole entry): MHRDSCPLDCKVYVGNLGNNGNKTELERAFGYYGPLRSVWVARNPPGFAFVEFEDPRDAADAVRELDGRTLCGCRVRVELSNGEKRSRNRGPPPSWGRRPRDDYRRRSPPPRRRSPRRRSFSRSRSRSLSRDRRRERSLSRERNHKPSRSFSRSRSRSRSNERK

[8] = molecular target: proteins of HEK293T cells transiently overexpressing caspase-6 (Homo sapiens, UniProt P33993); conditions: Probe; protein MCM7 P33993
Chain of proteins of HEK293T cells transiently overexpressing caspase-6 (Homo sapiens, UniProt P33993) (P33993 whole entry): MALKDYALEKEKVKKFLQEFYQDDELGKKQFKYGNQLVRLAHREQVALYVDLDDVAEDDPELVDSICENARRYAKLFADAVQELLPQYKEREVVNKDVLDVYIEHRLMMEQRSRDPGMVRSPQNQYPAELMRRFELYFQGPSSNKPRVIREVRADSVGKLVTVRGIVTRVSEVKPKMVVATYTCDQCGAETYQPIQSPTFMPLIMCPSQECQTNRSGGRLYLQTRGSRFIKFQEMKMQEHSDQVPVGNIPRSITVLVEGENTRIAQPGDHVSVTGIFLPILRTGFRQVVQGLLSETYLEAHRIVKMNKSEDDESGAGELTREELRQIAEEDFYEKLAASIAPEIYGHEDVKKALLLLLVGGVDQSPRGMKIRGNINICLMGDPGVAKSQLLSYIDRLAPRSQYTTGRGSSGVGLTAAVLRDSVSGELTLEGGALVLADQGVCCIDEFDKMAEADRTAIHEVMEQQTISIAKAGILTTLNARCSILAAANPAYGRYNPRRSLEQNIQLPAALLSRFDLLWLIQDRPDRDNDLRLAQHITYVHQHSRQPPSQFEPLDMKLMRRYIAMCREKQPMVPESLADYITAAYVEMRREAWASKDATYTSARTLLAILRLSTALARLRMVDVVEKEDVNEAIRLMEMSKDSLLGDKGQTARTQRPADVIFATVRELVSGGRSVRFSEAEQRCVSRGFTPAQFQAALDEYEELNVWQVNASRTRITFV

[9] = molecular target: proteins of HEK293T cells transiently overexpressing caspase-6 (Homo sapiens, UniProt P07237); conditions: protein P4HB (P07237)
Chain of proteins of HEK293T cells transiently overexpressing caspase-6 (Homo sapiens, UniProt P07237) (P07237 18-508): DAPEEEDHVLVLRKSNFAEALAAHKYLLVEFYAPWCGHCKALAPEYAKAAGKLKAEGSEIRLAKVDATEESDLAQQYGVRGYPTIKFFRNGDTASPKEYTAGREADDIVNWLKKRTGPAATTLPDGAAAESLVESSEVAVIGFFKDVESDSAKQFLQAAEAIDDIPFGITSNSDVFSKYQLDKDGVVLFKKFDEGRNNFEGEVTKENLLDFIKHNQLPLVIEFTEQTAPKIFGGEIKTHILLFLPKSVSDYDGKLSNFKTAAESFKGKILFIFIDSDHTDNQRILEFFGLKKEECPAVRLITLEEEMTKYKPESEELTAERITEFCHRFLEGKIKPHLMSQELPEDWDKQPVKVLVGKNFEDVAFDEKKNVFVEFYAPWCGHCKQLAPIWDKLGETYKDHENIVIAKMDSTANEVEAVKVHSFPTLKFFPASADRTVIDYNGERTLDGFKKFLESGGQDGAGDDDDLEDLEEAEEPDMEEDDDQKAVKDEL

[10] = molecular target: proteins of HEK293T cells transiently overexpressing caspase-6 (Homo sapiens, UniProt Q9NUU7); conditions: protein DDX19A (Q9NUU7); exp_ref Probe; analysis C6
Chain of proteins of HEK293T cells transiently overexpressing caspase-6 (Homo sapiens, UniProt Q9NUU7) (Q9NUU7 whole entry): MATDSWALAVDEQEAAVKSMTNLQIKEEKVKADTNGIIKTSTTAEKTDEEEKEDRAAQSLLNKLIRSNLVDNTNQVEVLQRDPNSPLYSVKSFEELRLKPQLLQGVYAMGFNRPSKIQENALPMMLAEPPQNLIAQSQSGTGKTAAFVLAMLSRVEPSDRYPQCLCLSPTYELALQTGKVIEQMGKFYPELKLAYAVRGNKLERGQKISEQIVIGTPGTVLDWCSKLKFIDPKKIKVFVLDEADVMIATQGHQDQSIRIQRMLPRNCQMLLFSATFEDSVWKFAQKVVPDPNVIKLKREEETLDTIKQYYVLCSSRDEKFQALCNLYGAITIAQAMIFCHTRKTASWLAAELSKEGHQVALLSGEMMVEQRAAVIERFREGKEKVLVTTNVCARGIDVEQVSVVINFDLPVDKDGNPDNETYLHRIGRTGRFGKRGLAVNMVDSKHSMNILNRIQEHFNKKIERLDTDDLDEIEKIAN

[11] = molecular target: proteins of HEK293T cells transiently overexpressing caspase-6 (Homo sapiens, UniProt O15355); conditions: exp_ref Probe; protein PPM1G (O15355); analysis C6
Chain of proteins of HEK293T cells transiently overexpressing caspase-6 (Homo sapiens, UniProt O15355) (O15355 whole entry): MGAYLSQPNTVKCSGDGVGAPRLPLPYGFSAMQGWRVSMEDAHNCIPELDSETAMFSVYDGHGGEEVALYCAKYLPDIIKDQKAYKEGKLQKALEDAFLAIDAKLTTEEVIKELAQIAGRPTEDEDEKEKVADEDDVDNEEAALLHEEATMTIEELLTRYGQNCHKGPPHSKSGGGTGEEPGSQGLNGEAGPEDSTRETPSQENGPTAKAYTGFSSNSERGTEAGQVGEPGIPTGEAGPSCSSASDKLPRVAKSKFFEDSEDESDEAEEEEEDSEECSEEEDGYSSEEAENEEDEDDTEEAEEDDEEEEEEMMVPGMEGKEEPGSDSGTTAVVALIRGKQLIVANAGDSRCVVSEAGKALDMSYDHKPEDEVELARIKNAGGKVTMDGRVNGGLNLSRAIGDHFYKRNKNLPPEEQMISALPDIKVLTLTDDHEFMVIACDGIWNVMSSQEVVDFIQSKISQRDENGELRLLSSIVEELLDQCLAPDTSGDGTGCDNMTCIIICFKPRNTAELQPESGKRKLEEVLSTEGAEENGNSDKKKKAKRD

[12] = molecular target: proteins of HEK293T cells transiently overexpressing caspase-6 (Homo sapiens, UniProt P61981); conditions: Probe; protein YWHAG P61981
Chain of proteins of HEK293T cells transiently overexpressing caspase-6 (Homo sapiens, UniProt P61981) (P61981 whole entry): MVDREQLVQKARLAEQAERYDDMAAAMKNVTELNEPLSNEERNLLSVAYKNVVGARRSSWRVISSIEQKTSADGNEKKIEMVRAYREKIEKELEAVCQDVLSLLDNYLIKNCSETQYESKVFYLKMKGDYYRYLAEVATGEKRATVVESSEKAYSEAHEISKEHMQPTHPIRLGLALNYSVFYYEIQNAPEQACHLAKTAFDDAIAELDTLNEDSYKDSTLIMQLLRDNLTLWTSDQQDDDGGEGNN

[13] = molecular target: proteins of HEK293T cells transiently overexpressing caspase-6 (Homo sapiens, UniProt P12277); conditions: protein CKB (P12277)
Chain of proteins of HEK293T cells transiently overexpressing caspase-6 (Homo sapiens, UniProt P12277) (P12277 whole entry): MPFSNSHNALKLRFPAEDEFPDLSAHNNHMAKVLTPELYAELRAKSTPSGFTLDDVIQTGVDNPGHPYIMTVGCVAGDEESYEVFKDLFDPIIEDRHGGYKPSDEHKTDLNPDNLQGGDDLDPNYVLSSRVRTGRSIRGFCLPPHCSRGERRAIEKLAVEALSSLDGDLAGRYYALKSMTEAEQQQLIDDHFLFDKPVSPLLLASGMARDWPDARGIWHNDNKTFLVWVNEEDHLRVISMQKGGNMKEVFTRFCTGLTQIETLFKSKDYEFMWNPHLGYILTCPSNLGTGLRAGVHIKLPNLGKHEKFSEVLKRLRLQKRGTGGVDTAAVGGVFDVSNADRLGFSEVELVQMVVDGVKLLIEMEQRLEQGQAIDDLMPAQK

Chain of proteins of HEK293T cells transiently overexpressing caspase-6 (Homo sapiens, UniProt P14866) (P14866 whole entry): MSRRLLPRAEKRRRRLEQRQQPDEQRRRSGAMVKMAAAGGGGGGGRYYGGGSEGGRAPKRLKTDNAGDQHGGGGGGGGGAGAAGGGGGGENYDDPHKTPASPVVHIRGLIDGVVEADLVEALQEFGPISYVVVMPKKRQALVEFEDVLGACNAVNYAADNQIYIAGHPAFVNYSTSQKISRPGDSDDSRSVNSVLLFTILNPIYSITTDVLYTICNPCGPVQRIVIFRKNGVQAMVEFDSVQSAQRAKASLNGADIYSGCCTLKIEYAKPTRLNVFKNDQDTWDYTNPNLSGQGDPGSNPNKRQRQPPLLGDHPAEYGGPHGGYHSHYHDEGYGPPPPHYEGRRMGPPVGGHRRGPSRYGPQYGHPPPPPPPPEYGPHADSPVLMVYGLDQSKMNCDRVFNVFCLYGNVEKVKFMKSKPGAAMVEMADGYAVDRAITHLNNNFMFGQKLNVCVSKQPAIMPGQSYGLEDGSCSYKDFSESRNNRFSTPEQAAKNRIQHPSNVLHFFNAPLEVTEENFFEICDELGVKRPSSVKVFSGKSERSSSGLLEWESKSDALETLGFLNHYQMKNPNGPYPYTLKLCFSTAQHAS

## C#CCOc1ccc([C@@H]2C[C@@H](C(=O)Nc3ccc(OC(F)(F)F)cc3)CN(S(=O)(=O)C=C)C2)cc1 (relative stereo) [13-t]
[1]
  enrich.exp.med: 0.1244
[2]
  enrich.exp.med: 0.4283
[3]
  enrich.exp.med: -2.1832
[4]
  enrich.exp.med: 1.9
[5]
  enrich.exp.med: 1.128
[6]; Probe, protein RPL15 P61313
  enrich.exp.med: -0.9576
[6]; protein RPL15 (P61313)
  enrich.exp.med.lin: 0.5149
  enrich.exp.med.log2: -0.9576
[7]
  enrich.exp.med: -0.7077
[8]
  enrich.exp.med: -1.046
[9]
  enrich.exp.med.lin: 4.024
  enrich.exp.med.log2: 2.009
[9]; exp_ref Probe, analysis C6
  enrich.exp.med: 2.009
[10]
  enrich.exp.med: 1.908
[11]
  enrich.exp.med: -0.08092
[12]
  enrich.exp.med: -1.712
[13]; exp_ref Probe, analysis C6
  enrich.exp.med: 0.5567
[13]
  enrich.exp.med.lin: 1.4709
  enrich.exp.med.log2: 0.5567

— PMC10176470, “Engaging a Non-catalytic Cysteine Residue Drives Potent and Selective Inhibition of Caspase-6” (Journal of the American Chemical Society, 2023)
